The text below walks through data of patent US11618747B2, “LXR modulators with bicyclic core moiety” (OrsoBio, Inc., priority 2018, dated 2023).

The target in test [1] is T1, LXRβ ligand-binding domain (Homo sapiens, UniProt P55055, DUP175-175).
T1 construct: amino acids 156-461; NP009052; made in house; host or cells: E. coli
T1 sequence (P55055 with tags, fused parts or gaps DUP175-175 limits assumed): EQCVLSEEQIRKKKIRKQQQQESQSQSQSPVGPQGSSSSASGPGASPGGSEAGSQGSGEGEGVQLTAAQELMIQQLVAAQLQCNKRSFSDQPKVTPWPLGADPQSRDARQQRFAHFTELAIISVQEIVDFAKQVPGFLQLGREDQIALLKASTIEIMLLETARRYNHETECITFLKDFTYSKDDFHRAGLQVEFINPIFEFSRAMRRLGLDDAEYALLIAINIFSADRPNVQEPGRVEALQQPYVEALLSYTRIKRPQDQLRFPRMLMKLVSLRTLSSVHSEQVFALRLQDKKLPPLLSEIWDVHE
The experiment in a line: TR-FRETβ activity assay (NCoA3 coactivator peptide recruitment). It is filed as biochemical. The conditions noted are these: TR-FRET, 1 μM 24(S)-25-epoxycholesterol prestimulation; read-out: FRETβ (EC50 range). A digest of the protocol:
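GST-tagged human LXRβ LBD (aa 156-461, E. coli) at 76 nM with 400 nM biotinylated NCoA3 peptide in Tris/HCl pH 6.8, 240 mM KCl, BSA, 0.002% Triton-X-100, plus 1 μM 24(S)-25-epoxycholesterol as prestimulating agonist. Compounds at 50 μM down to 0.002 μM, 1 h at 4 °C. Coactivator recruitment by TR-FRET (Tb cryptate/XL665, 615/665 nm), triplicates.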
Background: In TR-FRET formats the signal depends on donor and acceptor labels being close together.

The target of test [2] is T2, ligand-binding domain (LBD) of LXRα (Homo sapiens, UniProt Q13133).
T2 construct: expressed in transfected cells; host or cells: HEK293
T2 sequence (Q13133 155-447): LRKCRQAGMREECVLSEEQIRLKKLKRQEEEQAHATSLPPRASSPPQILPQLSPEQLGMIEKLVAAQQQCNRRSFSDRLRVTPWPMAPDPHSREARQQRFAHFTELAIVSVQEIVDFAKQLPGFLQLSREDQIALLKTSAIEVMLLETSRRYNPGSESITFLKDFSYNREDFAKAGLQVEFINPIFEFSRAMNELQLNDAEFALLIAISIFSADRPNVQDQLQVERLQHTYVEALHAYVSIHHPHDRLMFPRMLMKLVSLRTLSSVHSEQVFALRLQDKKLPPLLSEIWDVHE
Briefly: LXR Gal4 reporter transient transfection assay (LBD-M2H Gal4α). It is filed as cell-based. Particulars: HEK293 cells, LXRα LBD; read-out: LBD-M2H Gal4α (EC50 range). The protocol:
(§1) The tested compounds were usually dissolved, tested and stored as 20 mM stock solutions in DMSO. Since sulfonyl acetic acid derivatives tend to decarboxylate under these conditions, these stock solutions were prepared, tested and stored as 20 mM DMSO stock solutions containing 100 mM trifluoroacetic Acid (5 equivalents). Sulfonyl acetic acid derivatives are shelf stable as solid at rt for long time as reported by Griesbrecht et al. (Synlett 2010:374) or Faucher et al. (J. Med. Chem. 2004; 47:18).
(§2) LXR Gal4 Reporter Transient Transfection Assays
(§3) LXRα and LXRβ activity status was determined via detection of interaction with coactivator and corepressor proteins in mammalian two-hybrid experiments (M2H). For this, via transient transfection the full length (FL) proteins of LXRα (amino acids 1-447; NP005684; SEQ ID NO:1) or LXRβ-(amino acids 1-461; NP009052; SEQ ID NO:2) or the ligand-binding domains (LBD) of LXRα (amino acids 155-447 SEQ ID NO:3) or LXRβ (amino acids 156-461; SEQ ID NO:4) were expressed from pCMV-AD (Stratagene) as fusions to the transcriptional activation domain of NFkB. As cofactors, domains of either the steroid receptor coactivator 1 (SRC1; amino acids 552-887; SEQ ID NO:5) or of the corepressor NCoR (amino acids 1906-2312; NP006302; SEQ ID NO:6) were expressed as fusions to the DNA binding domain of the yeast transcription factor GAL4 (from pCMV-BD; Stratagene). Interaction was monitored via activation of a coexpressed Firefly Luciferase Reporter gene under control of a promoter containing repetitive GAL4 response elements (vector pFRLuc; Stratagene). Transfection efficiency was controlled via cotransfection of constitutively active pRL-CMV Renila reniformis luciferase reporter (Promega). HEK293 cells were grown in minimum essential medium (MEM) with 2 mM L-glutamine and Earle's balanced salt solution supplemented with 8.3% fetal bovine serum, 0.1 mM non-essential amino acids, 1 mM sodium pyruvate, at 37° C. in 5% CO2. 3.5×10^4 cells/well were plated in 96-well cell culture plates in growth medium supplemented with 8.3% fetal bovine serum for 16-20 h to ˜90% confluency. For transfection, medium was taken off and LXR and cofactor expressing plasmids as well as the reporter plasmids are added in 30 μL OPTIMEM/well including polyethylene-imine (PEI) as vehicle. Typical amounts of plasmids transfected/well: pCMV-AD-LXR (5 ng), pCMV-BD-cofactor (5 ng), pFR-Luc (100 ng), pRL-CMV (0.5 ng). Compound stocks were prepared in DMSO, prediluted in MEM to a total volume of 120 μL, and added 4 h after addition of the transfection mixture (final vehicle concentration not exceeding 0.2%). Cells were incubated for additional 16 h, lysed for 10 min in 1× Passive Lysis Buffer (Promega) and Firefly and Renilla luciferase activities were measured sequentially in the same cell extract using buffers containing D-luciferine and coelenterazine, respectively. Measurements of luminescence were done in a BMG-luminometer.

For test [3], the target named is T3, ligand-binding domain (LBD) of LXRβ (Homo sapiens, UniProt P55055, DUP175-175).
T3 construct: LXRβ (amino acids 156-461); expressed in transfected cells; host or cells: HEK293
T3 sequence (P55055 with tags, fused parts or gaps DUP175-175 limits assumed): T1 sequence (P55055 with tags, fused parts or gaps DUP175-175 limits assumed)
Briefly: LXR Gal4 reporter transient transfection assay (LBD-M2H Gal4β). It is filed as cell-based. Particulars: HEK293 cells, LXRβ LBD; read-out: LBD-M2H Gal4β (EC50 range). The protocol:
as §1, §2, §3

In general, EC50 refers to the concentration at which the effect is half-maximal.

On to `N#Cc1sccc1-c1c(-c2ccc(C3CC3C(=O)O)s2)n(S(=O)(=O)c2ccc(Cl)cc2)c2ccccc12` (stereo not shown) [30/8], for which the EC50 was in the range of 1 to 10 µM in test [1], 0.1 to 1 µM in test [2] and 0.1 to 1 µM in test [3].
With `Cc1ccc(S(=O)(=O)n2c(-c3ccc(/C=C/C(=O)O)s3)c(-c3ccsc3C#N)c3ccccc32)cc1` [3/19], the EC50 in test [1] is 1 to 10 µM; in test [2], 0.1 to 1 µM; in test [3], 0.1 to 1 µM.
Consider `N#Cc1sccc1-c1c(-c2cccs2)n(S(=O)(=O)c2cccc3ccccc23)c2ccccc12` [1/27], for which the EC50 in test [1] is 1 to 10 µM; in test [2], 0.1 to 1 µM; in test [3], less than 0.1 µM.
For the compound `Cc1ccc(S(=O)(=O)n2c(-c3cccc(/C=C/C(=O)O)c3)c(-c3ccsc3C#N)c3ccccc32)cc1` [3/18], the EC50 in test [1] is 1 to 10 µM; in test [2], 0.1 to 1 µM; in test [3] it was less than 0.1 µM.
For `N#Cc1sccc1-c1c(-c2cccs2)n(S(=O)(=O)c2ccc(F)cc2F)c2ccccc12` [20/12] the same measures were 1 to 10 µM, less than 0.1 µM and less than 0.1 µM.
Take `N#Cc1sccc1-c1c(-c2ccccc2)n(S(=O)(=O)c2cccnc2)c2ccccc12` [1/41]: the results for the EC50 in test [1], in test [2] and in test [3] were 1 to 10 µM, 0.1 to 1 µM and less than 0.1 µM, respectively.
For the compound `N#Cc1sccc1-c1c(-c2cccs2)n(S(=O)(=O)c2ccc(Cl)cc2)c2ccccc12` [20/13], the EC50 in test [1] was 0.1 to 1 µM; in test [2] it was less than 0.1 µM; in test [3] it was less than 0.1 µM.
Regarding `N#Cc1cscc1-c1c(-c2cccs2)n(S(=O)(=O)c2ccc(Cl)cc2)c2ccccc12` [20/4], the results for the EC50 in test [1], in test [2] and in test [3] were 1 to 10 µM, less than 0.1 µM and less than 0.1 µM, respectively.
Take `N#Cc1sccc1-c1c(-c2cc(Cl)cc(C3CC3C(=O)O)c2)n(S(=O)(=O)c2ccc(Cl)cc2)c2ccccc12` (stereo not shown) [30/9]: the EC50 is 1 to 10 µM in test [1], 0.1 to 1 µM in test [2] and less than 0.1 µM in test [3].
As for `COc1ccc2c(-c3ccsc3C#N)c(-c3cccs3)n(S(=O)(=O)c3ccc(Cl)cc3)c2c1` [1/40], the EC50 in test [1] was 1 to 10 µM; in test [2] it was 0.1 to 1 µM; in test [3], less than 0.1 µM.
Consider `Cc1ccc(S(=O)(=O)n2c(-c3cc(C4CC4C(=O)O)cs3)c(-c3ccsc3C#N)c3ccccc32)cc1` (stereo not shown) [3/17], for which the EC50 is 1 to 10 µM in test [1], 0.1 to 1 µM in test [2] and less than 0.1 µM in test [3].
Consider `N#Cc1sccc1-c1c(-c2cccs2)n(S(=O)(=O)c2ccc(Cl)cc2)c2ccc(OCCCC(=O)O)cc12` [15/1], for which the EC50 in test [1] is 1 to 10 µM; in test [2] it was 0.1 to 1 µM; in test [3], 0.1 to 1 µM.
For `COc1ccc(S(=O)(=O)n2c(-c3ccccc3)c(C3=C(C#N)CCCC3)c3ccccc32)cc1` [20/16], the EC50 in test [1] lay within 1 to 10 µM; in test [2], 0.1 to 1 µM; in test [3], 0.1 to 1 µM.
In the case of `COc1ccc(S(=O)(=O)n2c(-c3ccccc3)c(-c3ccsc3OC)c3ccccc32)cc1` [20/22], the EC50 in test [1], in test [2] and in test [3] was 0.1 to 1 µM in each case.
As to `CS(=O)(=O)c1ccccc1-c1c(-c2cccs2)n(S(=O)(=O)c2ccc(Cl)cc2)c2ccccc12` [20/5], the EC50 in test [1] is 1 to 10 µM; in test [2] it was 0.1 to 1 µM; in test [3], 0.1 to 1 µM.
With `N#Cc1sccc1-c1c(-c2cccs2)n(S(=O)(=O)c2ccc(Cl)cc2)c2ccc(OCCCCC(=O)O)cc12` [15/2], the EC50 in test [1] was greater than 10 µM; in test [2], 0.1 to 1 µM; in test [3] it was 0.1 to 1 µM.
For `Cc1ccc(S(=O)(=O)n2c(-c3ccc(CC(C)(C)C(=O)O)s3)c(-c3ccsc3C#N)c3ccccc32)cc1` [3/16], the EC50 in test [1] was 1 to 10 µM; in test [2], 0.1 to 1 µM; in test [3], 0.1 to 1 µM.
Consider `N#Cc1sccc1-c1c(-c2cccc(OCC(=O)O)c2)n(S(=O)(=O)c2ccc(Cl)cc2)c2ccccc12` [3/51], for which the EC50 in test [1] was in the range of 1 to 10 µM; in test [2], 0.1 to 1 µM; in test [3], 0.1 to 1 µM.
With `Cn1cnc(S(=O)(=O)n2c(-c3cccs3)c(-c3ccsc3C#N)c3ccccc32)c1` [1/28], the EC50 in test [1] was 1 to 10 µM; in test [2], 0.1 to 1 µM; in test [3], less than 0.1 µM.
Regarding `COc1ccc2c(c1)c(-c1ccsc1C#N)c(-c1cccs1)n2S(=O)(=O)c1ccc(Cl)cc1` [1/39], the figures for the EC50 in test [1] and in test [2] were greater than 10 µM and 1 to 10 µM, respectively.
With `Cc1ccc(S(=O)(=O)n2c(-c3cccc(-c4cncc(C(C)(C)C(=O)O)c4)c3)c(-c3ccsc3C#N)c3ccccc32)cc1` [30/3], the EC50 in test [2] and in test [3] was 0.1 to 1 µM each time.
On to `N#Cc1sccc1-c1c(-c2ccccc2)n(S(=O)(=O)c2ccc(OCC(=O)O)cc2)c2ccccc12` [Example 27, 2-(4-((3-(2-Cyanothiophen-3-yl)-2-phenyl-1-H-indol-1-yl)sulfonyl)phenoxy)acetic Acid], for which the EC50 in test [1] is 1 to 10 µM; in test [3], 0.1 to 1 µM.
Regarding `COc1ccc(S(=O)(=O)n2c(-c3ccccc3)c(-c3c(C#N)sc4ccccc34)c3ccccc32)cc1` [20/18], the values for the EC50 in test [2] and in test [3] were 0.1 to 1 µM and less than 0.1 µM, respectively.
Consider `O=C(O)c1sccc1-c1c(-c2cccs2)n(S(=O)(=O)c2ccc(Cl)cc2)c2ccccc12` [Example 21, 3-(1-((4-Chlorophenyl)sulfonyl)-2-(thiophen-2-yl)-1H-indol-3-yl)thiophene-2-carboxylic Acid], for which the EC50 in test [1] was greater than 10 µM; in test [3], 1 to 10 µM.
For `N#Cc1sccc1-c1c(-c2cncs2)n(S(=O)(=O)c2ccc(Cl)cc2)c2ccccc12` [Example 25], in that order: 1 to 10 µM and less than 0.1 µM.
On to `COc1ccc(S(=O)(=O)n2c(-c3ccc(CCC(=O)O)cc3)c(-c3ccsc3C#N)c3ccccc32)cc1` [15/6], for which the EC50 in test [1] lay within 1 to 10 µM; in test [3], 0.1 to 1 µM.
For `N#Cc1sccc1-c1c(-c2cccs2)n(S(=O)(=O)c2ccc(Cl)cc2)c2cc(CCC(=O)O)c(O)cc12` [Example 17, 3-(1-((4-Chlorophenyl)sulfonyl)-3-(2-cyanothiophen-3-yl)-5-hydroxy-2-(thiophen-2-yl)-1H-indol-6-yl)propanoic Acid] the same measures were greater than 10 µM and 1 to 10 µM.
